From PubChem BioAssay AID1963858 (Molecular Pharmacology Branch, DTP, NCI, 2024)

Test system: HOP-62 multicell spheroids with HUVEC/MSC, viability
Experiment: Anticancer human tumor HOP-62 cell line growth inhibition [KRAS2];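 note: viability read after a week of compound exposure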;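 for viability, T/C: 100% = DMSO vehicle-treated spheroids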
Details: for viability, T/C: stronger effect = lower value
Outline: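 Combination screen of spheroid viability in tumor-cell co-cultures with endothelial (HUVEC) and mesenchymal stem cell stroma. Each agent was tested in half-log dilutions, topping at clinical Cmax or at 10 microM without a known Cmax.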

[1] = curve of first compound, second compound 0.1 µM
[2] = curve of first compound, second compound 0.316 µM
[3] = curve of first compound, second compound 1 µM
[4] = curve of first compound, second compound 3.16 µM
[5] = curve of first compound, second compound 10 µM
[6] = second compound 0.1 µM, first compound 0.0316 µM
[7] = second compound 0.1 µM, first compound 0.1 µM
[8] = second compound 0.1 µM, first compound 0.316 µM
[9] = second compound 0.1 µM, first compound 1 µM
[10] = second compound 0.1 µM, first compound 3.16 µM
[11] = second compound 0.1 µM, first compound 10 µM
[12] = second compound 0.316 µM, first compound 0.0316 µM
[13] = second compound 0.316 µM, first compound 0.1 µM
[14] = second compound 0.316 µM, first compound 0.316 µM
[15] = second compound 0.316 µM, first compound 1 µM
[16] = second compound 0.316 µM, first compound 3.16 µM
[17] = second compound 0.316 µM, first compound 10 µM
[18] = second compound 1 µM, first compound 0.0316 µM
[19] = second compound 1 µM, first compound 0.1 µM
[20] = second compound 1 µM, first compound 0.316 µM
[21] = second compound 1 µM, first compound 1 µM
[22] = second compound 1 µM, first compound 3.16 µM
[23] = second compound 1 µM, first compound 10 µM
[24] = second compound 3.16 µM, first compound 0.0316 µM
[25] = second compound 3.16 µM, first compound 0.1 µM
[26] = second compound 3.16 µM, first compound 0.316 µM
[27] = second compound 3.16 µM, first compound 1 µM
[28] = second compound 3.16 µM, first compound 3.16 µM
[29] = second compound 3.16 µM, first compound 10 µM
[30] = second compound 10 µM, first compound 0.0316 µM
[31] = second compound 10 µM, first compound 0.1 µM
[32] = second compound 10 µM, first compound 0.316 µM
[33] = second compound 10 µM, first compound 1 µM
[34] = second compound 10 µM, first compound 3.16 µM
[35] = second compound 10 µM, first compound 10 µM

| Compound | IC50 [1] [nM] | IC50 [2] [nM] | IC50 [3] [nM] | IC50 [4] [nM] | IC50 [5] [nM] | viability, T/C [6] [%] | viability, T/C [7] [%] | viability, T/C [8] [%] | viability, T/C [9] [%] | viability, T/C [10] [%] | viability, T/C [12] [%] | viability, T/C [13] [%] | viability, T/C [14] [%] | viability, T/C [15] [%] | viability, T/C [16] [%] | viability, T/C [18] [%] | viability, T/C [19] [%] | viability, T/C [20] [%] | viability, T/C [21] [%] | viability, T/C [22] [%] | further results |
| --- | --- | --- | --- | --- | --- | --- | --- | --- | --- | --- | --- | --- | --- | --- | --- | --- | --- | --- | --- | --- | --- |
| CC1(C)CCC(CN2CCN(c3ccc(C(=O)NS(=O)(=O)c4ccc(NCC5CCOCC5)c([N+](=O)[O-])c4)c(Oc4cnc5[nH]ccc5c4)c3)CC2)=C(c2ccc(Cl)cc2)C1 + C=CC(=O)N1CCN(c2nc(=O)n(-c3c(C)ccnc3C(C)C)c3nc(-c4c(O)cccc4F)c(F)cc23)C(C)C1 | < 31.6 | 2160 | 2010 | 3670 | < 31.6 | 46.2 | 49.4 | 50.5 | 43.1 | 39.1 | 53.4 | 51.9 | 57.7 | 56.2 | 47.1 | 55 | 57.1 | 50.8 | 52.6 | 48 | viability, T/C [11]: 12.1%; viability, T/C [17]: 20.5%; viability, T/C [23]: 13%; viability, T/C [24]: 64.9%; viability, T/C [25]: 58.9%; viability, T/C [26]: 48.7%; viability, T/C [27]: 54.4%; viability, T/C [28]: 55.7%; viability, T/C [29]: 12.2%; viability, T/C [30]: 43.7%; viability, T/C [31]: 46.5%; viability, T/C [32]: 41.4%; viability, T/C [33]: 41.5%; viability, T/C [34]: 32%; viability, T/C [35]: 16.2% |
| COc1cc(Nc2ncc3c(n2)-c2ccc(Cl)cc2C(c2c(F)cccc2OC)=NC3)ccc1C(=O)O + CNCc1ccccc1-c1csc(C(C)Nc2nc(C)nc3cc(OC)c(OC)cc23)c1 | 274 | 143 | 39.6 | < 31.6 | < 31.6 | 69.4 | 57.7 | 44.5 | 43.8 | 30.5 | 59.5 | 54.2 | 42.4 | 37 | 27.3 | 51.4 | 46.3 | 37.3 | 34.6 | 27.4 | viability, T/C [11]: 19.6%; viability, T/C [17]: 20.3%; viability, T/C [23]: 17.9%; viability, T/C [24]: 15.7%; viability, T/C [25]: 0.89%; viability, T/C [26]: 10.6%; viability, T/C [27]: 4.93%; viability, T/C [28]: 0.62%; viability, T/C [29]: 4.15%; viability, T/C [30]: 0.12%; viability, T/C [31]: 0.2%; viability, T/C [32]: 1.86%; viability, T/C [33]: 0.11%; viability, T/C [34]: 2.34%; viability, T/C [35]: 0.17% |
| CNCc1ccccc1-c1csc(C(C)Nc2nc(C)nc3cc(OC)c(OC)cc23)c1 (centres undefined) | – | – | – | – | – | – | – | – | – | – | – | – | – | – | – | – | – | – | – | – | viability, T/C (compound 0.1 µM): 99.2% [middle of 17 runs]; viability, T/C (compound 10 µM): 0.22% [middle of 15 runs]; IC50 (compound alone, run of 07/19/2021): 1.54 µM [middle of 5 runs]; IC50 (compound alone, run of 07/26/2021): 1.73 µM [middle of 6 runs] |
| CC(=O)OC12COC1CC(O)C1(C)C(=O)C(O)C3=C(C)C(OC(=O)C(O)C(NC(=O)OC(C)(C)C)c4ccccc4)CC(O)(C(OC(=O)c4ccccc4)C21)C3(C)C (centres undefined) + CC1OCC2(CCN(c3cnc(Sc4ccnc(N)c4Cl)c(N)n3)CC2)C1N | < 10 | < 10 | < 10 | < 10 | < 10 | 34.9 | 35.6 | 37.6 | 38.2 | 40.1 | 33 | 31.2 | 29.8 | 33.1 | 36.4 | 33.8 | 32.7 | 34.5 | 34.8 | 45 | viability, T/C (second compound 0.1 µM, first compound 0.01 µM): 35.9%; viability, T/C (second compound 0.316 µM, first compound 0.01 µM): 31.2%; viability, T/C (second compound 1 µM, first compound 0.01 µM): 37.5%; viability, T/C (second compound 3.16 µM, first compound 0.01 µM): 25.5%; viability, T/C [24]: 22.3%; viability, T/C [25]: 39.3%; viability, T/C [26]: 25.5%; viability, T/C [27]: 25.6%; viability, T/C [28]: 26.9%; viability, T/C (second compound 10 µM, first compound 0.01 µM): 23%; viability, T/C [30]: 18.8%; viability, T/C [31]: 35.4%; viability, T/C [32]: 23.5%; viability, T/C [33]: 25.7%; viability, T/C [34]: 29.4% |
